Reference: ChEMBL document CHEMBL3046835, “Insecticidal activity influence of beta-cypermethrin on the pathogenicity of Beauveria bassiana against Aleurodicus disperses” (Crop Prot, 2013)
≈ marks a conversion by molar mass, not a printed value.

How the values were obtained:
[1] = system: Beauveria bassiana; assay: Effect on Beauveria bassiana Bb-N1 conidial germination at 2 mg/L measured at 27 +/-2 degC after 24 hr (reference value: 94.85 +/-2.13%); assay type: ADME, organism-based; details: in vivo
[2] = system: Aleurodicus dispersus; assay: Insecticidal activity against third-instar nymph stage of Aleurodicus dispersus in guava leaves assessed as mortality treated for 15 s measured at 27 +/-2 degC after 48 hr; assay type: functional
[3] = system: Aleurodicus dispersus; assay: Insecticidal activity against third-instar nymph stage of Aleurodicus dispersus in guava leaves assessed as mortality treated for 15 s measured at 27 +/-2 degC after 24 hr; assay type: functional
[4] = system: Aleurodicus dispersus; assay: Insecticidal activity against third-instar nymph stage of Aleurodicus dispersus in guava leaves assessed as mortality at 40 mg/l treated for 15 s measured at 27 +/-2 degC after 48 hr (reference value: 3%); assay type: functional
[5] = system: Aleurodicus dispersus; assay: Insecticidal activity against third-instar nymph stage of Aleurodicus dispersus in guava leaves assessed as mortality at 20 mg/l treated for 15 s measured at 27 +/-2 degC after 48 hr (reference value: 3%); assay type: functional
[6] = system: Aleurodicus dispersus; assay: Insecticidal activity against third-instar nymph stage of Aleurodicus dispersus in guava leaves assessed as mortality at 10 mg/l treated for 15 s measured at 27 +/-2 degC after 48 hr (reference value: 3%); assay type: functional
[7] = system: Aleurodicus dispersus; assay: Insecticidal activity against third-instar nymph stage of Aleurodicus dispersus in guava leaves assessed as mortality at 5 mg/l treated for 15 s measured at 27 +/-2 degC after 48 hr (reference value: 3%); assay type: functional
[8] = system: Aleurodicus dispersus; assay: Insecticidal activity against third-instar nymph stage of Aleurodicus dispersus in guava leaves assessed as mortality at 2.5 mg/l treated for 15 s measured at 27 +/-2 degC after 48 hr (reference value: 3%); assay type: functional
[9] = system: Aleurodicus dispersus; assay: Insecticidal activity against third-instar nymph stage of Aleurodicus dispersus in guava leaves assessed as mortality at 40 mg/l treated for 15 s measured at 27 +/-2 degC after 24 hr (reference value: 2%); assay type: functional
[10] = system: Aleurodicus dispersus; assay: Insecticidal activity against third-instar nymph stage of Aleurodicus dispersus in guava leaves assessed as mortality at 20 mg/l treated for 15 s measured at 27 +/-2 degC after 24 hr (reference value: 2%); assay type: functional
[11] = system: Aleurodicus dispersus; assay: Insecticidal activity against third-instar nymph stage of Aleurodicus dispersus in guava plant leaves assessed as mortality at 8 mg/l measured after 6 days in presence of 10^8 Beauveria bassiana conidial suspension under laboratory conditions (reference value: 32.8 +/-2.39%); assay type: functional; details: 144 h
[12] = system: Aleurodicus dispersus; assay: Insecticidal activity against third-instar nymph stage of Aleurodicus dispersus in guava plant leaves assessed as mortality at 4 mg/l measured after 6 days in presence of 10^8 Beauveria bassiana conidial suspension under laboratory conditions (reference value: 32.8 +/-2.39%); assay type: functional; details: 144 h
[13] = system: Aleurodicus dispersus; assay: Insecticidal activity against third-instar nymph stage of Aleurodicus dispersus in guava plant leaves assessed as mortality at 2 mg/l measured after 6 days in presence of 10^8 Beauveria bassiana conidial suspension under laboratory conditions (reference value: 32.8 +/-2.39%); assay type: functional; details: 144 h
[14] = system: Aleurodicus dispersus; assay: Insecticidal activity against third-instar nymph stage of Aleurodicus dispersus in guava plant leaves assessed as mortality at 8 mg/l measured after 3 days under laboratory conditions (reference value: 2%); assay type: functional; details: 72 h
[15] = system: Aleurodicus dispersus; assay: Insecticidal activity against third-instar nymph stage of Aleurodicus dispersus in guava plant leaves assessed as mortality at 4 mg/l measured after 3 days under laboratory conditions (reference value: 2%); assay type: functional; details: 72 h
[16] = system: Aleurodicus dispersus; assay: Insecticidal activity against third-instar nymph stage of Aleurodicus dispersus in guava plant leaves assessed as mortality at 2 mg/l measured after 3 days under laboratory conditions (reference value: 2%); assay type: functional; details: 72 h
[17] = system: Aleurodicus dispersus; assay: Insecticidal activity against third-instar nymph stage of Aleurodicus dispersus in guava plant leaves assessed as mortality at 8 mg/l measured after 3 days in presence of 10^8 Beauveria bassiana conidial suspension under laboratory conditions (reference value: 24.3 +/-1.03%); assay type: functional; details: 72 h
[18] = system: Aleurodicus dispersus; assay: Insecticidal activity against third-instar nymph stage of Aleurodicus dispersus in guava plant leaves assessed as mortality at 4 mg/l measured after 3 days in presence of 10^8 Beauveria bassiana conidial suspension under laboratory conditions (reference value: 24.3 +/-1.03%); assay type: functional; details: 72 h
[19] = system: Aleurodicus dispersus; assay: Insecticidal activity against third-instar nymph stage of Aleurodicus dispersus in guava plant leaves assessed as mortality at 2 mg/l measured after 3 days in presence of 10^8 Beauveria bassiana conidial suspension under laboratory conditions (reference value: 24.3 +/-1.03%); assay type: functional; details: 72 h
[20] = system: Beauveria bassiana; assay: Effect on Beauveria bassiana Bb-N1 conidial production at <8 mg/L measured at 27 +/-2 degC after 10 days; assay type: ADME, organism-based; details: in vivo, 240 h
[21] = system: Beauveria bassiana; assay: Inhibition of Beauveria bassiana Bb-N1 mycelial growth at 10 mg/L measured at 27 +/-2 degC after 10 days (reference value: 2.4 +/-0.19%); assay type: organism-based; set-up: scale not given: the % may be the effect or the level left; details: in vivo, 240 h
[22] = system: Beauveria bassiana; assay: Inhibition of Beauveria bassiana Bb-N1 mycelial growth at 8 mg/L measured at 27 +/-2 degC after 10 days (reference value: 2.4 +/-0.19%); assay type: organism-based; set-up: scale not given: the % may be the effect or the level left; details: in vivo, 240 h
[23] = system: Beauveria bassiana; assay: Inhibition of Beauveria bassiana Bb-N1 mycelial growth at 4 mg/L measured at 27 +/-2 degC after 10 days (reference value: 2.4 +/-0.19%); assay type: organism-based; set-up: scale not given: the % may be the effect or the level left; details: in vivo, 240 h
[24] = system: Beauveria bassiana; assay: Inhibition of Beauveria bassiana Bb-N1 mycelial growth at 2 mg/L measured at 27 +/-2 degC after 10 days (reference value: 2.4 +/-0.19%); assay type: organism-based; set-up: scale not given: the % may be the effect or the level left; details: in vivo, 240 h
[25] = system: Beauveria bassiana; assay: Effect on Beauveria bassiana Bb-N1 conidial germination at 10 mg/L measured at 27 +/-2 degC after 24 hr (reference value: 94.85 +/-2.13%); assay type: ADME, organism-based; details: in vivo
[26] = system: Beauveria bassiana; assay: Effect on Beauveria bassiana Bb-N1 conidial germination at 8 mg/L measured at 27 +/-2 degC after 24 hr (reference value: 94.85 +/-2.13%); assay type: ADME, organism-based; details: in vivo
[27] = system: Beauveria bassiana; assay: Effect on Beauveria bassiana Bb-N1 conidial germination at 4 mg/L measured at 27 +/-2 degC after 24 hr (reference value: 94.85 +/-2.13%); assay type: ADME, organism-based; details: in vivo

Q: For `CC1(C)[C@H](C=C(Cl)Cl)[C@H]1C(=O)O[C@@H](C#N)c1cccc(Oc2ccccc2)c1` [BETA-CYPERMETHRIN], which germination rate [1] is on record?
A: 93.78%

Q: What about the LC95 [2] of the same molecule?
A: 1768.57 µg/mL (≈ 4250 µM)

Q: What about the LC50 ([2]; Aleurodicus dispersus, Nymph stage, 48 h) of the same molecule?
A: 18.4 µg/mL (≈ 44.1 µM)

Q: And the LC95 [3]?
A: 1551.51 µg/mL (≈ 3730 µM)

Q: What about the LC50 ([3]; Aleurodicus dispersus, Nymph stage, 24 h) of the same molecule?
A: 50 µg/mL (≈ 120 µM)

Q: What about the mortality at 40 µg/mL [4] of the same molecule?
A: 60.3%

Q: And the mortality at 20 µg/mL [5]?
A: 52.8%

Q: What about the mortality at 10 µg/mL [6] of the same molecule?
A: 47.8%

Q: What about the mortality at 5 µg/mL [7] of the same molecule?
A: 32.3%

Q: And the mortality at 2.5 µg/mL [8]?
A: 25.2%

Q: And the mortality at 40 µg/mL [9]?
A: 46.6%

Q: What about the mortality at 20 µg/mL [10] of the same molecule?
A: 34.5%

Q: And the mortality at 8 µg/mL [11]?
A: 80.6%

Q: And the mortality at 4 µg/mL [12]?
A: 77.6%

Q: And the mortality at 2 µg/mL [13]?
A: 75.3%

Q: What about the mortality at 8 µg/mL [14] of the same molecule?
A: 39.3%

Q: And the mortality at 4 µg/mL [15]?
A: 34.1%

Q: What about the mortality at 2 µg/mL [16] of the same molecule?
A: 28.7%

Q: What about the mortality at 8 µg/mL [17] of the same molecule?
A: 76.1%

Q: What about the mortality at 4 µg/mL [18] of the same molecule?
A: 74.3%

Q: And the mortality at 2 µg/mL [19]?
A: 67.7%

Q: What about the Activity [20] of the same molecule?
A: Non-toxic

Q: And the Activity [21]?
A: 8.2%

Q: And the Activity [22]?
A: 4.4%

Q: And the Activity [23]?
A: 3.1%

Q: What about the Activity [24] of the same molecule?
A: 2.7%

Q: And the germination rate [25]?
A: 89.18%

Q: And the germination rate [26]?
A: 92.31%

Q: And the germination rate [27]?
A: 93.15%
